Earlier results on 1 compound are cited in patent US20240016938A1, “METHODS FOR INCREASING THE BIOAVAILABILITY OF NUCLEOSIDE MEDICINAL AGENTS” (ZOGENIX MDS, INC., priority 2022, published 2024).

The conditions of the data set: 600-mg oral dose; food intake immediately before oral dosing; cited from earlier work.

For `Cc1cn([C@@H]2C[C@@H](O)[C@H](CO)O2)c(=O)[nH]c1=O` [telbivudine, 3-L-2-deoxythymidine], the “absorption as measured by Cmax, Tmax, AUC(0-t), and AUC(0-infinity), fed vs fasting” value was “not altered by food intake”.
